Key:
RPE cells = test: Cell cycle analysis by flow cytometry at end of wound healing; type: cell-based; conditions: 4 μM FQI1, 12-hour time-point
Procedure: Cell cycle analysis by flow cytometry: After trypsinization, subsequent steps prior to staining were performed at 4° C. Cells in PBS were transferred dropwise into ethanol (final concentration of 70%) for overnight incubation. Fixed cells were washed with PBS and then incubated in 50 μg/ml propidium iodide and 10 μg/ml RNase A in PBS for 45 minutes at room temperature. After passage through a cell strainer, cell fluorescence was measured using a Becton Dickinson FACSCalibur. Ten thousand events were counted per sample. Histogram plots were generated using FlowJo.
All the samples, including a “0 hour” synchronized and an asynchronous sample, were harvested and prepared for flow cytometry, as described above. The proportion of cells in their respective cell cycle phases was determined by applying the Dean-Jett-Fox model in the FlowJo Cell Cycle analysis tool.

LSF = target: T1, LSF (Homo sapiens, UniProt Q12800); test: Cellular thermal shift assay (CETSA) in Huh7 cells; type: binding; conditions: 50 μM, three hours, vs DMSO
T1 construct: Representative immunoblots of soluble LSF after treatment with FQI2-34 versus DMSO; endogenous in cells; host or cells: Huh7
T1 sequence (Q12800 1-502): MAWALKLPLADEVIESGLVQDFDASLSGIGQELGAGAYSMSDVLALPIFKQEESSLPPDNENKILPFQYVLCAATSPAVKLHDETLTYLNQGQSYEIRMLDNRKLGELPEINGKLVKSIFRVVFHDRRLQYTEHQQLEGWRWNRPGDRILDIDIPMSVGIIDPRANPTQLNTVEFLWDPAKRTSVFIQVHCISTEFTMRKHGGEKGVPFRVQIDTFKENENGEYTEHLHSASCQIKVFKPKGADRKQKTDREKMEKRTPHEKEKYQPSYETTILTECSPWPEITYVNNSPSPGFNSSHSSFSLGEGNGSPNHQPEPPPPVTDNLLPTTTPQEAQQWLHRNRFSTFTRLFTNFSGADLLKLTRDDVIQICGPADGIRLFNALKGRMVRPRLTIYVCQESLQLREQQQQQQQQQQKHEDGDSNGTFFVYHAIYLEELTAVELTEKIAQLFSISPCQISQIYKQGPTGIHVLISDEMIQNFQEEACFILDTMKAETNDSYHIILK
Procedure: Cellular Thermal Shift Assay (CETSA): Huh7 cells obtained from JCRB (Japanese Cancer Resources Bank) were cultured in DMEM medium (Corning) supplemented with 10% fetal bovine serum (Gibco). The cells were cultured at 37° C. in 5% CO2. Approximately 9×10^5 Huh7 cells were plated per 10 cm plate. After 20 hours, cells were treated for three hours with fresh media containing 50 μM FQI1, 50 μM FQI2-34, or 0.1% DMSO (FQI1 control) or 0.5% DMSO (FQI2-34 control). Subsequently, the cells were washed with PBS (137 mM NaCl, 2.7 mM KCl, 10 mM Na2HPO4, 2 mM KH2PO4, pH 7.2) supplemented with their respective treatments (FQI1, FQI2-34, or vehicle) and scraped from the dish in the presence of 5 mL of PBS supplemented with 1 mM Pefabloc (Sigma-Aldrich, 76307) plus the respective treatment. Pelleted cells were resuspended in 500 μL of PBS buffer with 1 mM Pefabloc plus the respective treatment. Aliquots of 50 μL of cell suspension from each treatment sample were incubated separately at the indicated temperatures for 3 minutes in a thermal cycler (Bio-rad, T100 Thermocyler), then cooled at the room temperature for 3 minutes. Lysates were prepared by four rounds of snap freezing and thawing. […] Films were scanned and band intensities were quantified by densitometry with Image J; a non-parametric t-test was used to determine statistical significance.

FH-B cells = test: Microtubule sedimentation assay; type: cell-based, human
Procedure: Cell lysate preparation: For microtubule sedimentation assays, cells were treated as indicated in the figure legends, washed with PBS and incubated in 250 μl of microtubule sedimentation assay lysis buffer (100 mM PIPES pH 6.8, 2 M glycerol, 2 mM EGTA, 5 mM MgCl2, 0.1% Triton X-100) supplemented with 1 μM taxol, protease inhibitor cocktail (1:200, Abcam, ab201111) and phosphatase inhibitor cocktail (1:100, Abcam, ab201115) for 20 minutes at 37° C. Two hundred μl of scraped lysate was centrifuged at 21,000×g for 10 minutes at room temperature. Supernatants were saved as soluble fractions. Pellets were resuspended in 200 μl RIPA buffer (50 mM Tris HCl pH 8.0, 150 mM NaCl, 1% IGEPAL CA630, 0.05% deoxycholic acid) supplemented with 1.05% SDS, protease inhibitor cocktail (1:200) and phosphatase inhibitor cocktail (1:100) and incubated at 100° C. for 15 minutes. Pellet suspensions were centrifuged as before and supernatants were saved as pellet fractions.
Gel electrophoresis and immunoblotting: Microtubule sedimentation fractions and MLC2 analysis samples were separated by electrophoresis through tris-glycine and tricine polyacrylamide gels, respectively, which were transferred to PVDF membranes. Membranes with microtubule sedimentation fractions and MLC2 analysis samples were blocked in 5% milk in TBST and in 5% BSA in TBST, respectively. After overnight incubation with primary antibody at 4° C., the membranes were washed and incubated with secondary antibody for 1 hour at room temperature. Primary antibodies included anti-α-tubulin (1:2,000, Thermo Fisher Scientific, PA529444), anti-acetylated tubulin (1:1,000, Sigma-Aldrich, T7451), anti-phospho MYL9 (1:200, Thermo Fisher Scientific, PA517727), and anti-β-actin (1:5,000, Sigma-Aldrich, A1978). Secondary antibodies included Goat anti-Rabbit HRP (Thermo Fisher Scientific, 31460; 1:10,000 for anti-α-tubulin; 1:5,000 for anti-phospho MYL9), and Goat anti-Mouse HRP (Thermo Fisher Scientific, 62-6520; 1:5,000 for anti-acetylated tubulin; 1:10,000-1:20,000 for anti-β-actin). Membranes were placed into Pierce™ ECL Western Blotting Substrate (Thermo Fisher Scientific, 32106). Autoradiography film was exposed to each membrane for various times to ensure acquisition of non-saturated exposures. Band intensities were quantified from scanned films by densitometry using ImageJ.

| Structure (SMILES) | cells with a 4n DNA content (RPE cells) | stability of LSF to thermal denaturation (LSF) | time after addition at which a drop in pelleted tubulin is observed (FH-B cells; 4 μM FQI1) | microtubule stability and α-tubulin acetylation in the microtubule fraction (FH-B cells; 4 μM FQI1 (15- and 30-minute pellets), 1 μM nocodazole or taxol 30 minutes) |
| --- | --- | --- | --- | --- |
| CCOc1ccccc1C1CC(=O)Nc2cc3c(cc21)OCO3 (centres unmarked) [FQI1, 8-(2-ethoxyphenyl)-7,8-dihydro-[1,3]dioxolo[4,5-g]quinolin-6(5H)-one] | ~30% | enhanced the stability of LSF to thermal denaturation | 1 min | increase in the amount of acetylated α-tubulin in the microtubule fraction |
| CCOc1cc(N(C)C)ccc1-c1cc(=O)[nH]c2cc3c(cc12)OCO3 [FQI2-34, 8-(4-(dimethylamino)-2-ethoxyphenyl)-[1,3]dioxolo[4,5-g]quinolin-6(5H)-one] |  | enhanced the stability of LSF to thermal denaturation |  |  |

Reference: patent publication US11458132B2, “Quinolin-2(1H)-one inhibitors of Late SV40 Factor” (TRUSTEES OF BOSTON UNIVERSITY, priority 2020, dated 2022)
